{"source": "patent US20050288373A1", "about": "“Methods of treating various conditions by administration of sustained release L-arginine” (priority 2002, published 2005)", "key": {"[1]": {"test_system": "triglycerides", "assay": "Triglyceride levels pre- and post-treatment", "assay_type": "in vivo, human", "details": "for No. of subjects outside normal range, triglycerides: 15 subjects"}, "[2]": {"test_system": "total cholesterol", "assay": "Change in total cholesterol levels", "assay_type": "in vivo, human", "details": "resulting from treatment, 3 weeks", "method": "(§1) Endothelium-dependent vasodilation was assessed by brachial artery ultrasound using computer-assisted image analysis; ADMA and L-arginine plasma concentrations were determined by a validated HPLC method.\n(§2) In the study described in Example 15, the change in total cholesterol (TC), LDL cholesterol, HDL cholesterol, and triglycerides was analyzed pre- and post-treatment."}, "[3]": {"test_system": "HDL cholesterol", "details": "resulting from treatment, 3 weeks", "method": "as §1, §2"}, "[4]": {"test_system": "LDL cholesterol", "details": "resulting from treatment, 3 weeks", "method": "as §1, §2"}, "[5]": {"details": "resulting from treatment, 3 weeks"}}}
{"smiles": "CCC(C)(C)C(=O)O[C@H]1C[C@@H](C)C=C2C=C[C@H](C)[C@H](CC[C@@H]3C[C@@H](O)CC(=O)O3)[C@H]21", "note": "[Simvastatin, simvastatin]", "values": [{"measurement": "Triglyceride Levels, Mean", "setting": "[1]; after treatment, 3 weeks", "result": 140.2, "unit": "mg/dL"}, {"measurement": "Triglyceride Levels, Median", "setting": "[1]; after treatment, 3 weeks", "result": 134.0, "unit": "mg/dL"}, {"measurement": "Triglyceride Levels, Min-Max", "setting": "[1]; after treatment, 3 weeks", "result": "58 to 440", "unit": "mg/dL"}, {"measurement": "No. of subjects outside normal range, triglycerides", "setting": "[1]; after treatment, 3 weeks", "result": 1}, {"measurement": "Triglyceride Levels, Mean", "setting": "[1]; before treatment", "result": 165.1, "unit": "mg/dL"}, {"measurement": "Triglyceride Levels, Median", "setting": "[1]; before treatment", "result": 155.0, "unit": "mg/dL"}, {"measurement": "Triglyceride Levels, Min-Max", "setting": "[1]; before treatment", "result": "51 to 337", "unit": "mg/dL"}, {"measurement": "No. of subjects outside normal range, triglycerides", "setting": "[1]; before treatment", "result": 5}, {"measurement": "Change in Triglyceride Levels, Mean", "setting": "[1]; [5]", "result": -24.9, "unit": "mg/dL"}, {"measurement": "Change in Triglyceride Levels, Median", "setting": "[1]; [5]", "result": -38.0, "unit": "mg/dL"}, {"measurement": "Change in Triglyceride Levels, Min-Max", "setting": "[1]; [5]", "result": "-143 to 205", "unit": "mg/dL"}, {"measurement": "Change in Total Cholesterol Levels, Mean", "setting": "[2]", "result": -76.3, "unit": "mg/dL"}, {"measurement": "Change in Total Cholesterol Levels, Median", "setting": "[2]", "result": -78.0, "unit": "mg/dL"}, {"measurement": "Change in Total Cholesterol Levels, Min-Max", "setting": "[2]", "result": "-134 to -14", "unit": "mg/dL"}, {"measurement": "Change in High Density Lipoprotein Cholesterol Levels, Mean", "setting": "[3]", "result": 1.2, "unit": "mg/dL"}, {"measurement": "Change in High Density Lipoprotein Cholesterol Levels, Median", "setting": "[3]", "result": 0.0, "unit": "mg/dL"}, {"measurement": "Change in High Density Lipoprotein Cholesterol Levels, Min-Max", "setting": "[3]", "result": "-7 to 20", "unit": "mg/dL"}, {"measurement": "Change in Low Density Lipoprotein Cholesterol Levels, Mean", "setting": "[4]", "result": -70.7, "unit": "mg/dL"}, {"measurement": "Change in Low Density Lipoprotein Cholesterol Levels, Median", "setting": "[4]", "result": -78.0, "unit": "mg/dL"}, {"measurement": "Change in Low Density Lipoprotein Cholesterol Levels, Min-Max", "setting": "[4]", "result": "-121 to -20", "unit": "mg/dL"}]}
